Experimental data: patent US20120076871A1, “METHOD FOR DETECTING, QUANTIFYING AND MAPPING DAMAGE AND/OR REPAIR OF DNA STRANDS” (GENOMIC VISION SA, priority 2010, published 2012)

Key:
[1] = system: human DNA extracted from cells; experiment: Relative fragmentation-induced Profile Deviation: Fpg treatment and Molecular Combing of DNA from cells exposed to H2O2; type: cell-based
Experimental: Construction of a DNA length reference profile of a healthy cellular population and comparison of the profile obtained from the same population after exposure to a genotoxic agent is performed. High resolution DNA length reference profiles are constructed by measuring the size of thousands of DNA molecules uniformly stretched on a combed slide.
In the case of damage generated at high frequency along the genome (for instance SSB, abasic sites, methylated, alkylated, oxidated bases, photoproducts), the conversion of most of the targeted lesions into DSB generates theoretically as much new DNA extremities as much lesions were present on the molecules. When comparing the length distribution profile of the damaged sample with the undamaged reference, a Profile Deviation (PD) associated to a specific damage appears. The amount of lesions generated by the genotoxic compound can then be estimated directly from the PD. […]
For direct visualization of stretched DNA, cover-slips were mounted with 20 μL of a Block-Aid (Invitrogen, ref. B-10710)-YOYO-1 iodide (Molecular Probes, code Y3601) mixture (10000:1 v/v) in order to counter-stain all stretched molecules. […] Length of the YOYO-1-stained DNA fibers were measured with internal software GVlab v0.4.6 (Genomic Vision S.A., Paris, France).

testicular cancer = settings: strongly reduced DNA repair capacity; cited from earlier work
[2] = system: non-small cell lung cancer (NSCLC); settings: higher levels of DNA repair capacity; cited from earlier work

SMILES | decay constants τ of exponential fit y=Ae^-x/τ of DNA size distribution as a function of H2O2 dose ([1]; 1, 5, 10 and 20 mM H2O2, 10 min, control excluded from linear fit) | length of stretched DNA strands (clustered oxidative damage) after Fpg treatment ([1]; cells incubated 10 min with 10 and 20 mM H2O2, compared to control sample) | survival rate after cisplatin treatment (testicular cancer) | survival after cisplatin treatment [2]
OO [H2O2] | decrease linearly | much shorter than in the control sample |  | 
N.N.[Cl][Pt][Cl] [cisplatin] |  |  | 95% | low survival
